Results as given in PubChem BioAssay AID1996.
Converted amounts (≈) assume the structure as drawn.

details: buffer; pH 7.4; 200.0 µM

Row | Compound | solubility kinetic [µg/mL]
1 | Cc1sc2ncnc(N(C)C3CCCCC3)c2c1C | 1.1 (≈ 3.99 µM)
2 | COCC(C)Nc1nc(C)c(C(C)=O)s1 (stereo not given) | > 34.2
3 | Cc1nnc(SC(C)C(=O)NC2CCCCC2)s1 (stereo not given) | > 42.8
4 | Cc1ccc(C(=O)Nc2nc(C)c(C(=O)N(C)C)s2)o1 | 40.3 (≈ 137 µM)
5 | O=C(c1ccc(Cl)cc1Cl)N1CCSCC1 | > 41.4
6 | CC(C)N1C(=O)N(c2cccc(Cl)c2)C(C)(O)CC1(C)C (stereo not given) | > 46.6
7 | Nc1cc(S(=O)(=O)N2CCOCC2)ccc1N1CCOCC1 | > 49.1
8 | CCC(=O)OCC(=O)N=c1sccn1Cc1ccc(C)cc1 | 36.4 (≈ 114 µM)
9 | Nc1c(C(=O)N2CCOCC2)sc2nc3c(cc12)CCC3 | > 45.5
10 | COC(=O)c1sccc1NC(=O)Nc1ccc(OC)cc1 | 40 (≈ 131 µM)
11 | O=C(NNC(=O)c1cccnc1)NC1CCCCC1 | > 39.3
12 | Cc1cc(=O)oc2c(CN3CCN(CCO)CC3)c(O)ccc12 | > 47.8
13 | Fc1ccc(Nc2nc3ccccc3s2)cc1 | 0.4 (≈ 1.64 µM)
14 | O=C(Cc1ccc(Br)cc1)Nc1ncc([N+](=O)[O-])s1 | 7.8 (≈ 22.8 µM)
15 | Cc1cc(NCCCOC(C)C)n2c(nc3ccccc32)c1C#N | 1.4 (≈ 4.34 µM)
16 | Cc1nn(-c2ccccc2)c(Cl)c1C(=O)N1CCN(C)CC1 | > 47.8
17 | CC1CCCC(NC(=O)COC(=O)c2cccs2)C1C (stereo not given) | 43.1 (≈ 146 µM)

Row | Compound | solubility kinetic [µg/mL]
18 | Nc1cc(=O)[nH]c(SCC(=O)NC2CCCCCCC2)n1 | > 46.6
19 | O=C(c1ccc(S(=O)(=O)N2CCCC2)cc1)N1CCCCCC1 | > 50.5
20 | Cc1ccc(SCCSc2nc(N)cc(=O)[nH]2)cc1 | 6.7 (≈ 22.8 µM)
21 | Cc1cc(=O)oc2cc(OCCC[n+]3ccccc3)ccc12.[Br-] | 53.6
22 | CC(=O)CC(C)(C)Nc1nc2ccc([N+](=O)[O-])cc2o1 | > 41.6
23 | CC(C)c1ccc(/C=C2\SC(N3CCOCC3)=NC2=O)cc1 | 29.9 (≈ 94.5 µM)
24 | Cc1ccc(NS(=O)(=O)c2cccc3nsnc23)cc1[N+](=O)[O-] | 50.2 (≈ 143 µM)
25 | CC(C)(CNC(=O)c1cccs1)N1CCOCC1 | > 40.3
26 | O=C(Nc1cccc(F)c1)N1CCCCCC1 | > 35.4
27 | COc1ccc(NC(=S)NC2CCCCC2)c(OC)c1 | > 44.2
28 | CCOC(=O)C1CCN(C(=O)c2cc3cc(Cl)ccc3[nH]2)CC1 | 19 (≈ 56.7 µM)
29 | Cc1cccc(Nc2nc(N)c([N+](=O)[O-])c(NCc3ccccc3)n2)c1 | 0.7 (≈ 2 µM)
30 | Cc1c(C(=O)N2CCC(C)CC2)cccc1[N+](=O)[O-] | > 39.3
31 | Oc1ccc(NC(=S)Nc2ccc(F)cc2)cc1 | 33.2 (≈ 127 µM)
32 | CCOC(=O)CC1C(=O)NCCN1C1CCCC1 (stereo not given) | > 38.1
33 | CCOC(=O)Cn1nc(C)n(-c2c(C)cccc2C)c1=O | > 43.4
34 | c1ccc(-c2cnc(CN3CCN(c4ccccc4)CC3)o2)cc1 | 40 (≈ 125 µM)

Now from value to compound:

Row | solubility kinetic [µg/mL] | Compound
35 | 36.8 (≈ 129 µM) | Cc1ccccc1CNC(=O)C1CCC(=O)N(C2CC2)C1 (stereo not given)
36 | 6.4 (≈ 16.2 µM) | Cc1oc(C(C)(C)C)cc1C(=O)N1CCN(c2ccc(C(F)(F)F)cn2)CC1
37 | 7.9 (≈ 23.6 µM) | O=C(NCc1csc(-c2cccs2)n1)c1cccc(Cl)c1
38 | > 52.1 | CC12C(=O)N(c3ccccc3)C(=O)C1C(c1ccccc1)N1CCCN12 (stereo not given)
39 | < 0.4 | Cn1c(=O)c(C(=O)NCc2ccc(Cl)cc2)c(O)c2ccccc21
40 | 16.8 (≈ 34.2 µM) | COCCOc1ccc(C(F)(F)F)cc1NC(=O)CN1C(=O)NC2(CCCc3ccccc32)C1=O (stereo not given)
41 | 18.9 (≈ 68.7 µM) | COc1cccc(COC(=O)Nc2ccccc2F)c1
42 | 57.8 (≈ 149 µM) | COc1ccccc1CNC(=O)CCNS(=O)(=O)/C=C/c1ccc(C)cc1
43 | 5.4 (≈ 15.7 µM) | CC(=O)c1ccc(NC(=O)CCNC(=O)c2ccc(Cl)cc2)cc1
44 | > 45.8 | CCCOc1ccc(C2=CSC3=NCCN23)cc1[N+](=O)[O-]
45 | 1.4 (≈ 4.69 µM) | O=C(Nc1ccc(OC(F)F)c(Cl)c1)c1ccccn1
46 | 30.7 (≈ 97.4 µM) | CN(CC(=O)Nc1ccccc1)CC(=O)Nc1ccc(F)cc1
47 | 3.7 (≈ 12.3 µM) | CC(=O)c1ccc(OCCOc2ccc([N+](=O)[O-])cc2)cc1
48 | 22.5 (≈ 74.2 µM) | CCCCOc1ccc(OCCNC(=O)c2ccco2)cc1
49 | 3.1 (≈ 10.5 µM) | CC(=O)c1cccc(NC(=S)N2CCc3ccccc32)c1
50 | 26.9 (≈ 84.2 µM) | COc1ccc(CNC(=O)C(C)OC(=O)c2cccs2)cc1 (stereo not given)
51 | 46.2 (≈ 131 µM) | Cn1c(N)c(C(=O)COC(=O)c2ccc(Cl)nc2)c(=O)n(C)c1=O
52 | 10.7 (≈ 32.3 µM) | COc1cc2ncnc(NCc3cccc(F)c3F)c2cc1OC
53 | 36.1 (≈ 128 µM) | Cn1c(C(=O)c2ccccc2[N+](=O)[O-])nc2ccccc21
54 | > 47 | COc1ccc(CCOC(=O)c2cccc(NC(C)=O)c2)cc1
55 | 3.8 (≈ 10.6 µM) | CCOC(=O)COn1c(=O)c(-c2ccc(F)cc2)[n+]([O-])c2ccccc21
56 | 1 (≈ 2.56 µM) | O=C(/C=C/c1cccc(F)c1)Nc1ccc(S(=O)(=O)N2CCOCC2)cc1
57 | > 51.3 | COC(=O)C(C)Oc1ccc(Cl)c(CN2OCC(C)(C)C2=O)c1 (stereo not given)
58 | > 55.7 | N#Cc1c(-c2ccccc2)nc(N2CCN(Cc3ccccc3)CC2)[nH]c1=O
59 | 35.3 (≈ 142 µM) | COc1ccccc1NC(=O)C(=O)N1CCCC1
60 | 3.3 (≈ 7.31 µM) | CCOc1ncccc1C(=O)N(CCC(C)C)c1c(N)n(Cc2ccccc2)c(=O)[nH]c1=O
